This assay deals with 282377-053-R-J1-PDC tumor spheroids, viability. Description: Anticancer human tumor 282377-053-R-J1-PDC patient-derived colon adenocarcinoma cell line growth inhibition [TAK]. The conditions noted are these: spheroids with HUVEC and MSC; for viability, T/C: stronger effect = lower value. An excerpt:
Combinatorial screen of targeted agents with TAK-243 and ipatasertib in multi-cell type tumor spheroids
A high-throughput screen of multi-cell type tumor spheroids was designed to identify active combinations of targeted small molecules and TAK-243 or ipatasertib. Complex spheroids include a stromal component modeled by human endothelial cells (HUVEC) and fibroblasts modeled by human mesenchymal stem cells (MSCs). The concentration ranges selected for each drug and investigational agent were based upon clinically achievable concentrations if the clinical Cmax of the agent was known.
Compounds. The drugs and investigational agents: TAK-243 (785004), ipatasertib (767898), everolimus (733504), selumetinib (741078), bortezomib (756655), trametinib (758246), ixazomib (758254), vemurafenib (761431), dabrafenib (764134), sapanisertib (764658), alpelisib (765974), and copanlisib (816437), were obtained from the National Cancer Institute (NCI) Developmental Therapeutics Program Chemical Repository. The FDA-approved anticancer drug set is available from the NCI Developmental Therapeutics Program. […] The stock solutions were prepared in dimethyl sulfoxide (DMSO, Sigma-Aldrich, St. Louis, MO, cat. D2650) at 800-fold the tested concentration and stored at -70 degrees C prior to their use. All drugs and investigational agents were tested over a range starting from a high concentration at or near the clinical Cmax and decreasing in half-log increments. If the clinical Cmax for an agent had not been determined, the highest concentration tested was 10 microM.
NCI60 Cell Culture. NCI60 cell lines were obtained from the NCI Developmental Therapeutics Program Tumor Repository. For each lot of cells, the Repository performed Applied Biosystems AmpFLSTR Identifiler testing with PCR amplification to confirm consistency with the published Identifier STR profile for each cell line. Cells were kept in continuous culture for no more than 20 passages. The optimal seeding densities for each of the cell lines at each time point assessed were determined prior to performing the concentration response studies. Briefly, the NCI60 human tumor lines were grown as monolayers in RPMI 1640 medium supplemented with 10% FBS and 2 mmol/L L-glutamine.
An additional 2 lines were from the NCI60 cell line panel including melanomas, MALME-3M and SK-MEL-2. Pooled donor human umbilical vein endothelial cells (HUVEC, Lonza, cat. CC-2519) and human mesenchymal stem cells (hMSC, Lonza, cat. PT-2501) were purchased from Lonza (Walkersville, MD).
PDMR cell lines were grown in complete medium (DC medium): Dulbecco's modified Eagle's medium (DMEM)/F12 supplemented with 5% fetal bovine serum (FBS), 2 mM L-glutamine, 100 U/mL penicillin and 100 µg/ml streptomycin, 0.4 µg/ml hydrocortisone, 10 ng/ml epidermal growth factor (EGF) recombinant human protein, 24 µg/mL adenine, and 0.1 mg/mL primocin. During culture from frozen stock vials, PDMR cells were cultured in the same medium containing 10 µM Y-27632 (see Table 3). The PDCs were cultured in complete DMEM/F12 media without 10 microM Y-27632 dihydrochloride for at least two passages prior to the screen. The pooled donor HUVEC and hMSC were cultured in endothelial cell growth medium 2 (PromoCell, Heidelberg, Germany, cat. C-22011) and mesenchymal stem cell growth medium 2 (PromoCell, cat. C-28009), respectively. For all experiments, HUVEC and hMSC were used at passages </=5.
For the pre-screen, cell seeding densities were determined from a titration spanning the range from 5,000 to 313 cells per well. The mct-spheroids including 60% malignant cells, 25% HUVEC and 15% MSC dispensed as a mixture into U-bottom Ultra-Low Attachment 384-well plates (Corning, NY)
High-throughput Drug Combination Screening.
Prior to their inoculation into 384-well plates, malignant cells, HUVEC, and hMSC were removed from T flasks using TrypLE express (Thermo Fisher Scientific, cat. 12605036) and harvested by centrifugation for 5 min at 233 x g. […]

These results are taken from PubChem BioAssay AID2060360 (Molecular Pharmacology Branch, DTP, NCI, 2025).

In general, viability, T/C refers to the ratio of treated to control. One may read the pIC50 as −log10 of the IC50, conventionally taken in molar units.

pIC50: −log10 of the molar value. “And” between values parts separate entries of the source, which are not always exact repeats. Identical values can stand only once.
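Also: spheroids exposed to drugs for seven days before readout.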

With `Cc1nc(NC(=O)N2CCCC2C(N)=O)sc1-c1ccnc(C(C)(C)C(F)(F)F)c1` (stereo not given), the viability, T/C is, setting by setting: (compound 0.0316 µM) 97.1% and 95.8%; (compound 0.1 µM) 96.6% and 101%; (compound 0.316 µM) 95.6% and 96.5%; (compound 1 µM) 93.9% and 93.5%; (compound 3.16 µM) 89.7% and 88.6%; (compound 10 µM) 85.2% and 79.1%. Moreover, the pIC50 (curve of compound) is below 5.00.
In the case of `CC(=O)Nc1cccc(-n2c(=O)n(C3CC3)c(=O)c3c(Nc4ccc(I)cc4F)n(C)c(=O)c(C)c32)c1` + CC(C)NCC(C(=O)N1CCN(c2ncnc3c2C(C)CC3O)CC1)c1ccc(Cl)cc1, the pIC50 (curve of first compound, second compound 0.3 µM) is 8.60; the pIC50 (curve of first compound, second compound 0.949 µM) was 8.71; the pIC50 (curve of first compound, second compound 3 µM) is 8.84; the pIC50 (curve of first compound, second compound 9.49 µM) was 8.81; the pIC50 (curve of first compound, second compound 30 µM) was 9.29. Moreover, the viability, T/C (second compound 0.3 µM, first compound 94.9 pM) is 96%; the viability, T/C (second compound 0.3 µM, first compound 0.0003 µM) is 79%; the viability, T/C (second compound 0.3 µM, first compound 0.000949 µM) was 67.5%; the viability, T/C (second compound 0.3 µM, first compound 0.003 µM) was 49.2%; the viability, T/C (second compound 0.3 µM, first compound 0.00949 µM) was 24.9%; the viability, T/C (second compound 0.3 µM, first compound 0.03 µM) was 12.4%. Besides, the viability, T/C (second compound 0.949 µM, first compound 94.9 pM) was 86.8%; the viability, T/C (second compound 0.949 µM, first compound 0.0003 µM) was 76.9%; the viability, T/C (second compound 0.949 µM, first compound 0.000949 µM) is 55.2%; the viability, T/C (second compound 0.949 µM, first compound 0.003 µM) was 49.3%; the viability, T/C (second compound 0.949 µM, first compound 0.00949 µM) was 24.8%; the viability, T/C (second compound 0.949 µM, first compound 0.03 µM) is 11.8%. Further, the viability, T/C (second compound 3 µM, first compound 94.9 pM) was 78.2%; the viability, T/C (second compound 3 µM, first compound 0.0003 µM) was 70.6%; the viability, T/C (second compound 3 µM, first compound 0.000949 µM) was 53.6%; the viability, T/C (second compound 3 µM, first compound 0.003 µM) is 40.8%; the viability, T/C (second compound 3 µM, first compound 0.00949 µM) is 26.7%; the viability, T/C (second compound 3 µM, first compound 0.03 µM) is 13.7%. Also, the viability, T/C runs as follows: (second compound 9.49 µM, first compound 94.9 pM) 75.4%; (second compound 9.49 µM, first compound 0.0003 µM) 71.7%; (second compound 9.49 µM, first compound 0.000949 µM) 56.8%; (second compound 9.49 µM, first compound 0.003 µM) 38.4%; (second compound 9.49 µM, first compound 0.00949 µM) 25.9%; (second compound 9.49 µM, first compound 0.03 µM) 12.4%. Further, the viability, T/C by setting is: (second compound 30 µM, first compound 94.9 pM) 64%; (second compound 30 µM, first compound 0.0003 µM) 58.6%; (second compound 30 µM, first compound 0.000949 µM) 41.6%; (second compound 30 µM, first compound 0.003 µM) 27%; (second compound 30 µM, first compound 0.00949 µM) 22.9%; (second compound 30 µM, first compound 0.03 µM) 12.3%.
`CC(=O)Nc1cccc(-n2c(=O)n(C3CC3)c(=O)c3c(Nc4ccc(I)cc4F)n(C)c(=O)c(C)c32)c1`: the viability, T/C is, setting by setting: (compound 94.9 pM) 98.3% and 96.1%; (compound 0.0003 µM) 86.1% and 84.3%; (compound 0.000949 µM) 70.9% and 75.1%; (compound 0.003 µM) 60.2% and 62.8%; (compound 0.00949 µM) 29.5% and 37.9%; (compound 0.03 µM) 13.8% and 13.7%. Where the note is “curve of compound”, the pIC50 is 8.41 and 8.28.
For the compound `CC(C)n1nc(-c2ccc3oc(N)nc3c2)c2c(N)ncnc21`, the viability, T/C is 99.5% and 93.2% (compound 0.000316 µM); 99% and 92.6% (compound 0.001 µM); 99.7% and 91.3% (compound 0.00316 µM); 89.3% (compound 0.01 µM); 83% and 83.3% (compound 0.0316 µM); 49.6% and 59.1% (compound 0.1 µM). Moreover, where the note is “curve of compound”, the pIC50 was below 7.00.
Turning to `Cn1cnc2c(F)c(Nc3ccc(Br)cc3Cl)c(C(=O)NOCCO)cc21`, the viability, T/C reads like this: (compound 0.00949 µM) 89.8% and 85.2%; (compound 0.03 µM) 88.6% and 82.3%; (compound 0.0949 µM) 79% and 71.6%; (compound 0.3 µM) 76.2% and 72.7%; (compound 0.949 µM) 46.9% and 36.5%; (compound 3 µM) 21.5% and 17.7%. Also, the pIC50 (curve of compound) is 6.06 and 6.21.
Regarding `CC(C)CC(NC(=O)C(Cc1ccccc1)NC(=O)c1cnccn1)B(O)O` (stereo not given), the viability, T/C (compound 31.6 pM) was 106% and 102%; the viability, T/C (compound 0.0001 µM) is 98.4% and 102%; the viability, T/C (compound 0.000316 µM) is 99.5% and 94.6%; the viability, T/C (compound 0.001 µM) was 109% and 101%; the viability, T/C (compound 0.00316 µM) is 100% and 97.2%; the viability, T/C (compound 0.01 µM) is 93.2% and 81.1%. For the same compound, under “curve of compound”, the pIC50 was below 8.00.
